Source: patent US20230364118A1, “RIBITOL TREATMENT” (priority 2020, published 2023)
“Also recorded” adds a separate entry of the source. Where two headings read alike, the source gives them in different places.

How the values were obtained:
Phase 2 patient study = type: in vivo, human; details: for average drop in fatigue (scale of 1 to 10): 90 days
Text: Ribitol is being tested in an ongoing Phase 2 study with 14 patients receiving doses of either 6 g once daily (QD), 6 g twice daily (BID), or 12 g BID. Data is available following 3 months of therapeutic exposure in 8 subjects (6 g QD, n=4, 6 g BID, n=4). […] All 12 subjects have shown decreases in creatine kinase from baseline. Younger, ambulatory patients started with higher baseline creatine kinase values and had the largest magnitude drops. Decreases were observable starting at day 8 with continued declines through day 90. Efficacy studies are ongoing. Improvements in 10-meter walk test (MWT) to test ambulation, NSAD for gross motor function, PUL2.0 for upper limb function, and spirometry for respiratory function have been observed (Table 17). […] Decreases in patient-reported muscle fatigue over the 90-day treatment period has been observed in 7 of 8 patients. These 7/8 patients have reported decreases as recorded in a daily diary and noted on a scale of 1 to 10 where 1 indicates no fatigue and a 10 is the maximum level of fatigue.

[1] = Single intravenous dose PK; type: in vivo, CD-1 mouse; details: for CLs: CD-1 mice; for clearance: read-out: Systemic clearance (CLs)
Description: The PK of ribitol was studied in male and female CD-1 mice following three IV doses at 10, 30, and 100 mg/kg (n=3/dose/sex). Blood samples were collected serially up to 24 hours post dose.

[2] = Metabolic stability in liver microsomes, cytosol, hepatocytes; type: in vitro ADME
Description: Metabolic stability of ribitol was conducted in liver microsomes, cytosol, and primary hepatocytes, from CD-1 mouse, Sprague-Dawley rat, Gottingen minipig, and human at a concentration of ribitol of 10 μM.

in vivo = details: minipig, po
Description: The purpose of this study was to determine the MTD following two oral doses 6±0.5 hours apart (Phase 1) and to characterize the toxicity and TK profile following 7 days BID dosing with ribitol with 6±0.5 hours between doses in minipigs.
Minipigs were assessed for viability, clinical signs, body weight, food consumption, clinical pathology (hematology, coagulation, and serum chemistry), organ weights (adrenal glands, brain, heart, kidneys, liver with gall bladder, ovary, spleen, testes, and thymus), and macroscopic pathology at necropsy. Blood was taken for plasma TK analysis on Days 1 and 7.
In Phase 1, Bama minipigs (2/sex/group) were ribitol at 0.3, 1.0, 1.5, or 2.0 g/kg/dose BID (0.6, 2.0, 3.0, or 4.0 g/kg/day) with 5.5 to 6.5 hours between doses. […] Minipigs were assessed for viability, clinical signs, body weight, food consumption, and macroscopic findings at necropsy.
Doses were selected for Phase 2 based on the Phase 1 study results and in compliance with the guidance criteria for high dose selection for general toxicity studies (ICH M3 [R2]). In this phase, minipigs (2/sex/group) were given oral doses of 0 (vehicle control, water), 0.1, 0.3, or 1.0 g/kg/dose ribitol BID with 5.5 to 6.5 hours between doses (0.2, 0.6, or 2.0 g/kg/day, respectively).

HPBLs = experiment: In vitro micronucleus assay; type: cell-based, human
Description: In this GLP-compliant study, ribitol was tested to evaluate the potential to induce micronuclei in HPBLs in both the absence and presence of S9. HPBL cells were treated for 4 hours in the absence and presence of S9, and for 24 hours in the absence of S9. Purified water was used as the vehicle. In the preliminary toxicity assay, the doses tested ranged from 0.0152 to 152 μg/mL (1 mM), which was the limit dose for this assay.

[3] = CD-1, mouse, liver cytosol, Cytosol
[4] = CD-1, mouse, liver microsomes, Microsomes
[5] = CD-1, mouse, primary hepatocytes, Hepatocytes
[6] = Gottingen, minipig, liver cytosol, Cytosol
[7] = Gottingen, minipig, liver microsomes, Microsomes
[8] = Gottingen, minipig, primary hepatocytes, Hepatocytes
[9] = Sprague-Dawley, rat, liver cytosol, Cytosol
[10] = Sprague-Dawley, rat, liver microsomes, Microsomes
[11] = Sprague-Dawley, rat, primary hepatocytes, Hepatocytes
[12] = human, liver microsomes, Microsomes
[13] = human, primary hepatocytes, Hepatocytes

## OC[C@@H](O)[C@@H](O)[C@@H](O)CO [ribitol, (2R,3s,4S)-Pentane-1,2,3,4,5-pentol]
Phase 2 patient study; 6 g BID, 3 months
  subjects with increase in glycosylation of αDG: 3 of 4
Phase 2 patient study; 6 g BID, day 90
  average decrease in creatine kinase: 77%
Phase 2 patient study; 6 g QD, 3 months
  subjects with increase in glycosylation of αDG: 4 of 4
Phase 2 patient study; 6 g QD, day 90
  average decrease in creatine kinase: 90%
Phase 2 patient study; 12 g BID, day 8
  average decrease in creatine kinase: 33%
Phase 2 patient study; 90-day treatment period
  patients with decrease in patient-reported muscle fatigue: 7 of 8
Phase 2 patient study; Baseline, Cohort 1 (6 g QD)
  Mean 10MWT (Ambulation): 2.06 m/sec
  Mean NSAD (Gross Motor Function): 33.8
  Mean PUL2.0 (Upper Limb Function): 37.3
Phase 2 patient study; Baseline, Cohort 2 (6 g BID)
  Mean 10MWT (Ambulation): 1.48 m/sec
  Mean NSAD (Gross Motor Function): 28.5
  Mean PP Supine FVC (Respiratory Function): 54.3
  Mean PUL2.0 (Upper Limb Function): 35.8
Phase 2 patient study; Baseline, Overall
  Mean 10MWT (Ambulation): 1.77 m/sec
  Mean NSAD (Gross Motor Function): 31.1
  Mean PP Supine FVC (Respiratory Function): 54.3
  Mean PUL2.0 (Upper Limb Function): 36.5
Phase 2 patient study; Day 90, Cohort 1 (6 g QD)
  Mean 10MWT (Ambulation): 2.82 m/sec
  Mean NSAD (Gross Motor Function): 33.5
  Mean PP Supine FVC (Respiratory Function): 79.5
  Mean PUL2.0 (Upper Limb Function): 37.3
Phase 2 patient study; Day 90, Cohort 2 (6 g BID)
  Mean 10MWT (Ambulation): 1.56 m/sec
  Mean NSAD (Gross Motor Function): 29.0
  Mean PP Supine FVC (Respiratory Function): 50.0
  Mean PUL2.0 (Upper Limb Function): 36.3
Phase 2 patient study; Day 90, Overall
  Mean 10MWT (Ambulation): 2.10 m/sec
  Mean NSAD (Gross Motor Function): 31.3
  Mean PP Supine FVC (Respiratory Function): 64.8
  Mean PUL2.0 (Upper Limb Function): 36.8
Phase 2 patient study; Delta, Cohort 1 (6 g QD)
  Mean 10MWT (Ambulation): 0.10 m/sec
  Mean NSAD (Gross Motor Function): −0.3
  Mean PUL2.0 (Upper Limb Function): 0.0
Phase 2 patient study; Delta, Cohort 2 (6 g BID)
  Mean 10MWT (Ambulation): 0.08 m/sec
  Mean NSAD (Gross Motor Function): 0.5
  Mean PP Supine FVC (Respiratory Function): −4.3
  Mean PUL2.0 (Upper Limb Function): 0.5
Phase 2 patient study; Delta, Overall
  Mean 10MWT (Ambulation): 0.09 m/sec
  Mean NSAD (Gross Motor Function): 0.1
  Mean PP Supine FVC (Respiratory Function): −4.3
  Mean PUL2.0 (Upper Limb Function): 0.3
Phase 2 patient study; both cohorts (6 g QD, 6 g BID), 3 months
  average increase in glycosylation of αDG: 13%
Phase 2 patient study; cohort 1 (6 g QD)
  average drop in fatigue (scale of 1 to 10): 1.3 points
Phase 2 patient study; cohort 2 (6 g BID)
  average drop in fatigue (scale of 1 to 10): 1.5 points
[1]; CD-1, mouse, plasma, IV 10 mg/kg, female
  AUC(0-inf): 13300 ng·h/mL
[1]; CD-1, mouse, plasma, IV 10 mg/kg, female, read-out: Vss
  Vd: 4.27 L/kg
[1]; CD-1, mouse, plasma, IV 10 mg/kg, male
  AUC(0-inf): 7320 ng·h/mL
[1]; CD-1, mouse, plasma, IV 10 mg/kg, male, read-out: Vss
  Vd: 1.49 L/kg
[1]; CD-1, mouse, plasma, IV 30 mg/kg, female
  AUC(0-inf): 20100 ng·h/mL
[1]; CD-1, mouse, plasma, IV 30 mg/kg, female, read-out: Vss
  Vd: 3 L/kg
[1]; CD-1, mouse, plasma, IV 30 mg/kg, male
  AUC(0-inf): 22300 ng·h/mL
[1]; CD-1, mouse, plasma, IV 30 mg/kg, male, read-out: Vss
  Vd: 6.74 L/kg
[1]; CD-1, mouse, plasma, IV 100 mg/kg, female
  AUC(0-inf): 43100 ng·h/mL
[1]; CD-1, mouse, plasma, IV 100 mg/kg, female, read-out: Vss
  Vd: 2.67 L/kg
[1]; CD-1, mouse, plasma, IV 100 mg/kg, male
  AUC(0-inf): 49700 ng·h/mL
[1]; CD-1, mouse, plasma, IV 100 mg/kg, male, read-out: Vss
  Vd: 2.01 L/kg
[1]; IV 10 mg/kg, female
  CLs: 12.6 mL/min/kg
[1]; IV 10 mg/kg, male
  CLs: 23.4 mL/min/kg
[1]; both sexes, CD-1, plasma, mouse, IV 100 mg/kg, range
  clearance: 33.6 to 38.9 mL/min/kg
[1]; both sexes, CD-1, plasma, mouse, IV 10 and 30 mg/kg, range
  clearance: 12.6 to 25 mL/min/kg
[1]; both sexes, CD-1, plasma, mouse, IV, range, read-out: Volume of distribution at steady state (Vss)
  Vd: 1.49 to 6.74 L/kg
[2]; [3]
  CLint scaled at 10 μM: 4.75 mL/min/kg
  half-life at 10 μM: 9.63 h
[2]; [4]
  CLint scaled at 10 μM: < 29.3 mL/min/kg
  half-life at 10 μM: > 3.12 h
[2]; [5]
  CLint scaled at 10 μM: < 22.6 mL/min/kg
  half-life at 10 μM: > 6.07 h
[2]; [6]
  CLint scaled at 10 μM: 2.71 mL/min/kg
  half-life at 10 μM: 3.27 h
[2]; [7]
  CLint scaled at 10 μM: < 5.56 mL/min/kg
  half-life at 10 μM: > 3.12 h
[2]; [8]
  CLint scaled at 10 μM: < 9.16 mL/min/kg
  half-life at 10 μM: > 6.07 h
[2]; [9]
  CLint scaled at 10 μM: 4.83 mL/min/kg
  half-life at 10 μM: 4.3 h
[2]; [10]
  CLint scaled at 10 μM: < 13.3 mL/min/kg
  half-life at 10 μM: > 3.12 h
[2]; [11]
  CLint scaled at 10 μM: < 8.89 mL/min/kg
  half-life at 10 μM: > 6.07 h
[2]; human, liver cytosol, Cytosol
  CLint scaled at 10 μM: 1.64 mL/min/kg
  half-life at 10 μM: 6.35 h
[2]; [12]
  CLint scaled at 10 μM: < 6.66 mL/min/kg
  half-life at 10 μM: > 3.12 h
[2]; [13]
  CLint scaled at 10 μM: < 5.28 mL/min/kg
  half-life at 10 μM: > 6.07 h
In vivo; both, Bama
  MTD at 14 days: ≥ 4000 mg/kg/day
In vivo
  MTD: ≥ 2.0 g/kg/dose BID
HPBLs; 0.0152 to 152 μg/mL, with and without S9
  cytotoxicity: Cytotoxicity was not observed
HPBLs; 19 to 152 μg/mL, presence and absence of S9
  induction of micronuclei: negative; also recorded: devoid of genotoxicity potential
